Test results: US7943551B2, “3-cyclopropyl-4-(3-thiobenzoyl) pyrazoles and their use as herbicides” (Bayer Cropscience AG, priority 2007, dated 2011)

Legend:
Assay type in all cases: in vivo
Fallopia convolvulus [1] = assay: Post-emergence herbicidal action; details: 80 g of a.i./ha
Method: (§1) Seeds of mono- and dicotyledonous harmful plants are placed in sandy loam in cardboard pots, covered with soil and grown in the greenhouse under good growth conditions. Two to three weeks after sowing, the test plants are treated at the three-leaf stage. The compounds according to the invention, which are formulated as wettable powders or as emulsion concentrates, are sprayed at an application rate of 600 to 800 l of water/ha (converted) in a dosage of 80 grams per hectare onto the surface of the green plant parts. The visual scoring of the damage to the harmful plants is carried out 3-4 weeks after the treatment. Here, the compounds of Nos. 1-39, 1-40, 1-1382 and 1-2091 show an activity of at least 90% against Echinochloa crus galli. The compounds of Nos. 1-3, 1-44 and 1-2091 shown an activity of at least 90% against Abutilon theophrasti. The compounds of Nos. 1-39, 1-40 and 1-1382 show an activity of at least 90% against Veronica persica. The compounds of Nos. 1-3, 1-38, 1-39, 1-1406 and 1-1407 show an activity of at least 90% against Stellaria media.
(§2) The comparative tests of Tables 1 to 24 below show the superiority of the compounds according to the invention over the compounds known from the prior art.
(§3) • ABUTH Abutilon theophrasti ALOMY Alopecurus myosuroides • AMARE Amaranthus retroflexus AVEFA Avena fatua • CHEAL Chenopodium album ECHCG Echinochloa crus galli • GALAP Galium aparine LOLMU Lolium multiflorum • MATIN Matricaria inodora PHBPU Pharbitis purpureum • POLCO Fallopia convolvulus STEME Stellaria media • VERPE Veronica persica VIOTR Viola tricolor • XANST Xanthium strumarium Crop Plants • GLXMA Glycine max (soybeans) TRZAS Triticum aestivum (wheat) • ZEAMX Zea mays (corn)

Pharbitis purpureum [2] = assay: Post-emergence herbicidal action; details: 80 g of a.i./ha
Method: as §1, §2, §3

Veronica persica [3] = assay: Post-emergence herbicidal action; details: 80 g of a.i./ha, visual scoring 3-4 weeks after treatment, read-out: Herbicidal activity in % against VERPE
Method: as §1, §2, §3

Viola tricolor [4] = assay: Post-emergence herbicidal action; details: 80 g of a.i./ha, read-out: Herbicidal activity in % against VIOTR
Method: as §1, §2, §3

[5] = test system: Triticum aestivum (wheat); assay: Post-emergence damage of crop plants; details: 80 g of a.i./ha, crop plant wheat
Method: as §1, with “The compounds according to the invention, which are formulated as wettable powders or as emulsion concentrates, are sprayed at an application rate of 600 to 800 l of water/ha (converted) in a dosage of 80 grams per hectare onto the surface of the green plant parts.” left out
as §2, §3

Amaranthus retroflexus = assay: Pre-emergence herbicidal action
Excerpt: (§4) Seeds or rhizome pieces of mono- and dicotyledonous harmful plants are placed in sandy loam in pots of a diameter of 9 to 13 cm and covered with soil. The herbicides, formulated as emulsifiable concentrates or dusts, are applied to the surface of the covering soil in the form of aqueous dispersions or suspensions or emulsions at an application rate of 300 to 800 l of water/ha (converted), […] For further cultivation of the plants, the pots are then kept in a greenhouse under optimum conditions. The visual scoring of the damage to the harmful plants is carried out 3-4 weeks after the treatment. Here, the compounds of Nos. 1-3, 1-15, 1-44 and 1-1407 show an activity of at least 90% against Echinochloa crus galli. The compounds of Nos. 1-15, 1-45, 1-1407 and 1-1419 show an activity of at least 90% against Abutilon theophrasti. The compounds of Nos. 1-3, 1-45, 1-1406 and 1-1418 show an activity of at least 90% against Amaranthus retroflexus. The compounds of Nos. 1-44, 1-1406, 1-1407 and 1-1419 show an activity of at least 90% against Stellaria media.
as §2, §3

Viola tricolor [6] = assay: Pre-emergence herbicidal action; details: 320 g of a.i./ha
Excerpt: as §4, §2, §3

Abutilon theophrasti = assay: Pre-emergence herbicidal action; details: 320 g of a.i./ha, visual scoring 3-4 weeks after treatment
Excerpt: (§5) Seeds or rhizome pieces of mono- and dicotyledonous harmful plants are placed in sandy loam in pots of a diameter of 9 to 13 cm and covered with soil. The herbicides, formulated as emulsifiable concentrates or dusts, are applied to the surface of the covering soil in the form of aqueous dispersions or suspensions or emulsions at an application rate of 300 to 800 l of water/ha (converted), at a dosage of 320 grams per hectare. For further cultivation of the plants, the pots are then kept in a greenhouse under optimum conditions. The visual scoring of the damage to the harmful plants is carried out 3-4 weeks after the treatment. Here, the compounds of Nos. 1-3, 1-15, 1-44 and 1-1407 show an activity of at least 90% against Echinochloa crus galli. The compounds of Nos. 1-15, 1-45, 1-1407 and 1-1419 show an activity of at least 90% against Abutilon theophrasti. The compounds of Nos. 1-3, 1-45, 1-1406 and 1-1418 show an activity of at least 90% against Amaranthus retroflexus. The compounds of Nos. 1-44, 1-1406, 1-1407 and 1-1419 show an activity of at least 90% against Stellaria media.
as §2, §3

Fallopia convolvulus [7] = assay: Pre-emergence herbicidal action; details: 320 g of a.i./ha
Excerpt: as §5, §2, §3

Matricaria inodora = assay: Pre-emergence herbicidal action; details: Tripleurospermum inodorum, read-out: Herbicidal activity in % against MATIN
Excerpt: as §5, §2, §3

Pharbitis purpureum [8] = assay: Pre-emergence herbicidal action; details: 320 g of a.i./ha
Excerpt: as §5, §2, §3

Xanthium strumarium = assay: Pre-emergence herbicidal action; details: 320 g of a.i./ha
Excerpt: as §5, §2, §3

Chenopodium album = assay: Pre-emergence herbicidal action; details: 320 g of a.i./ha
Excerpt: as §5, §2, §3

Galium aparine = assay: Pre-emergence herbicidal action; details: 320 g of a.i./ha
Excerpt: as §5, §2, §3

Glycine max (soybeans) = assay: Pre-emergence damage of crop plants; details: 320 g of a.i./ha, crop plant soybeans
Excerpt: as §5, §2, §3

[9] = test system: Triticum aestivum (wheat); assay: Pre-emergence damage of crop plants; details: 320 g of a.i./ha, crop plant wheat
Excerpt: as §5, §2, §3

Stellaria media = assay: Pre-emergence herbicidal action; details: 80 g of a.i./ha
Excerpt: as §4, §2, §3

Veronica persica [10] = assay: Pre-emergence herbicidal action; details: 80 g of a.i./ha
Excerpt: as §4, §2, §3

CSc1c(S(C)(=O)=O)ccc(C(=O)c2c(C3CC3)nn(C)c2O)c1C [drawing 32, reference compound]
Herbicidal activity in % against POLCO (Fallopia convolvulus [1]): 50% | Herbicidal activity in % against PHBPU (Pharbitis purpureum [2]): 40%

Cc1c(C(=O)c2c(C3CC3)nn(C)c2O)ccc(S(C)(=O)=O)c1[S+](C)[O-] (centres unmarked) [reference compound]
pest or weed control at 80 g/ha (Veronica persica [3]): 80% | pest or weed control at 80 g/ha (Viola tricolor [4]): 60% | Damage to TRZAS [5]: 50

COCCSc1c(S(C)(=O)=O)ccc(C(=O)c2c(C3CC3)nn(C)c2O)c1Cl [drawing 23]
Herbicidal activity in % against AMARE (Amaranthus retroflexus; 320 g of a.i./ha, visual scoring 3-4 weeks after treatment): 100% | Herbicidal activity in % against VIOTR (Viola tricolor [6]): 100% | Herbicidal activity in % against ABUTH (Abutilon theophrasti): 100% | Herbicidal activity in % against POLCO (Fallopia convolvulus [7]): 50% | pest or weed control at 320 g/ha (Matricaria inodora; 320 g of a.i./ha): 60%

CCS(=O)(=O)c1c(S(C)(=O)=O)ccc(C(=O)c2c(C3CC3)nn(C)c2O)c1C [drawing 14, reference compound]
Herbicidal activity in % against POLCO (Fallopia convolvulus [7]): 20% | Herbicidal activity in % against PHBPU (Pharbitis purpureum [8]): 20% | Herbicidal activity in % against XANST (Xanthium strumarium): 0%

Cc1c(C(=O)c2c(C3CC3)nn(C)c2O)ccc(S(C)(=O)=O)c1S(=O)(=O)CC1CC1 [drawing 37]
Herbicidal activity in % CHEAL (Chenopodium album): 100% | Herbicidal activity in % GALAP (Galium aparine): 100% | Damage to GLXMA (Glycine max (soybeans)): 0 | Damage to TRZAS [9]: 0

CCOCCSc1c(S(C)(=O)=O)ccc(C(=O)c2c(C3CC3)nn(C)c2O)c1C
Herbicidal activity in % against POLCO (Fallopia convolvulus [1]): 70% | Herbicidal activity in % against PHBPU (Pharbitis purpureum [2]): 60% | pest or weed control at 80 g/ha (Viola tricolor [4]): 80%

CSc1c(Cl)ccc(C(=O)c2c(C3CC3)nn(C)c2O)c1C [reference compound]
Herbicidal activity in % against AMARE (Amaranthus retroflexus; 80 g of a.i./ha): 70% | Herbicidal activity in % against STEME (Stellaria media): 80% | Herbicidal activity in % against VERPE (Veronica persica [10]): 50%

COCC[S+]([O-])c1c(S(C)(=O)=O)ccc(C(=O)c2c(C3CC3)nn(C)c2O)c1C (centres unmarked) [drawing 33]
pest or weed control at 80 g/ha (Veronica persica [3]): 100% | pest or weed control at 80 g/ha (Viola tricolor [4]): 70% | Damage to TRZAS [5]: 20

CCSc1c(Cl)ccc(C(=O)c2c(C3CC3)nn(C)c2O)c1C [drawing 18, reference compound]
Herbicidal activity in % against STEME (Stellaria media): 60% | Herbicidal activity in % against VERPE (Veronica persica [10]): 30% | pest or weed control at 80 g/ha (Matricaria inodora; 80 g of a.i./ha): 30%
